From patent EP0413299A1, “Antibiotic composition” (MERCIAN CORPORATION, priority 1989, dated 1991)
Like-named read-outs stand apart in the source and are kept apart here.

Experiments:
[1] = X-ray diffraction; format: physicochemical; conditions: before storage
Description: The X-ray diffractions of the above-obtained samples were measured by using a JDX-8030 X-ray diffraction apparatus (JEOL LTD.) through a Ni-filter with a CuKα x-ray (40KV, 20mA) at a scanning speed of 1.2° /min. (Fig. 1).

[2] = format: physicochemical; conditions: pH 4
Description: Solubility of the samples was determined by using a […] dissolution apparatus (Toyama Sangyo Co., LTD.) and 200 ml of buffer (adjusted at pH 4.0, prepared by mixing JP dissolution test solution 1 and JP dissolution test solution II) at 37 ± 0.5°C with stirring at 100 rpm paddle rotation. 250 mg (potency equivalent) of sample was added to the test solution, and the solubility of the sample was determined by high performance liquid chromatography under time course investigation. […] However, the solubility decreased immediately after about 5 minutes because of crystallization of the antibiotic. […] After storage for one month at 60°C , the solubility of the granules of Reference 3 was no more than 240μg/ml after five minutes, and became the same as that of the crystalline powders after 60 minutes.

[3] = acidic aqueous solution

4˝-O-(Para-methoxyphenylacetyl)tylosin
X-ray diffraction peaks [1]: High X-ray diffraction peaks were observed | solubility [2]: no more than about a few micrograms per ml | solubility ([3]; pH 2): 1200 µg/mL | solubility ([3]; pH 4): 10 µg/mL | solubility ([3]; pH 5): 2 µg/mL | solubility ([3]; pH 6.8): 0.5 µg/mL
